Assay results taken from PMC9527238, “Glutamate and GABAA receptor crosstalk mediates homeostatic regulation of neuronal excitation in the mammalian brain” (Signal Transduction and Targeted Therapy, 2022).

Key:
[1] = molecular target: T1, α1 β2^E181G γ2 GABAAR (Rattus norvegicus, UniProt P62813+P63138, E206G); experiment: Patch clamp, HEK293, mutant GABAAR; type: cell-based
T1 construct: expressed in transfected cells; host or cells: HEK293
Source text: (§1) The subunits are color-coded individually. The boxed regions are further enlarged in the middle panels, highlighting the predicted glutamate binding pocket in the α+ and β− interface, just below the loop C. […] Relative potentiation was obtained by normalizing potentiation observed in the mutated receptor to that in the respective wild-type receptor.
(§2) To positively confirm one of these two putative binding sites involved in glutamate binding, we performed a systemic mutational analysis of critical amino acids around these two sites followed by electrophysiological characterizations of their impacts on glutamate potentiation in HEK293 cells expressing wild-type or mutated α1β2γ2 GABAARs (Table 1).
(§3) HEK293 cells were cultured in DMEM (Invitrogen) supplemented with 10% fetal bovine serum. Cells were grown to 40–60% confluence and transiently transfected using Lipofectamine 2000 (Invitrogen) with 1:0.5–1 plasmid/lipid ratio. Cells were transfected with a pBK-CMV expression vector containing a rat recombinant GABAAR α, β or γ subunits. Co-transections were done with a plasmid ratio of 1:1 αβ and 2:2:1 for αβγ subunit combinations, respectively. pcDNA3.1-GFP was also co-transfected along with GABAAR subunits as a transfected marker in order to facilitate the visualization of the transfected cells during electrophysiological experiments. Cells were re-plated on glass coverslips after 15–20 h transfection and were cultured for an additional 15–24 h before whole-cell patch-clamp recordings.
(§4) The site-directed mutagenesis of α, β or γ subunits were performed by using the QuikChange method (Stratagene). […] Wild-type or mutant subunits were transfected in HEK293 cells and subjected to electrophysiology examinations.
(§5) Whole-cell patch-clamp recordings were performed under voltage-clamp mode using an Axopatch 200B or 1D patch-clamp amplifier (Molecular Devices) on HEK293 cells and cultured neurons. Whole-cell currents were recorded at a holding potential of −60 mV, and signals were filtered at 2 kHz, digitized at 10 kHz (Digidata 1322 A). Recording pipettes (3–5 MΩ) were filled with the intracellular solution that contained (mM): CsCl 140, HEPES 10, Mg-ATP 4, QX-314 5, pH 7.20; osmolarity, 290–295 mOsm. BAPTA (10 mM) was added in the intracellular solution. The coverslips were continuously superfused with the extracellular solution containing (mM): NaCl 140, KCl 5.4, HEPES 10, MgCl2 1.0, CaCl2 1.3, glucose 20, pH 7.4; osmolarity, 305–315 mOsm. […] Dose–response curves were created by fitting data to Hill equation: I = Imax/[1 + (EC50/[A])^n], where I is the current, Imax is the maximum current, [A] is a given concentration of agonist, n is the Hill coefficient. […] All experiments were performed at room temperature.

[2] = molecular target: T2, α1^K155D β2 γ2 GABAAR (Rattus norvegicus, UniProt P62813+P63138, K182D); experiment: Patch clamp, HEK293, mutant GABAAR; type: cell-based; conditions: GABA-evoked currents
T2 construct: expressed in transfected cells; host or cells: HEK293
Source text: as §1, §2, §3, §4, §5

[3] = molecular target: T3, α1^K104D β2 γ2 GABAAR (Rattus norvegicus, UniProt P62813+P63138, K131D); experiment: Patch clamp, HEK293, mutant GABAAR; type: cell-based
T3 construct: expressed in transfected cells; host or cells: HEK293
Source text: as §1, §2, §3, §4, §5

[4] = molecular target: T4, α1β2 GABAARs (Rattus norvegicus, UniProt P62813+P63138); experiment: [3H]glutamate binding assay, plasma membranes of HEK293 cells overexpressing α1 and β2; conditions: 40 nM [3H]glutamate + 0.4 mM non-radiolabeled competitor
T4 construct: expressed in transfected cells; host or cells: HEK293
Procedure: For membrane preparation, transfected or non-transfected HEK293 cells were washed twice with cold PBS and harvested by scraping into 5 ml cold PBS. Cells were then centrifuged at 1200 × g for 12 min at 4 °C and medium was removed. The washing procedure was repeated twice. Then the cell pellet was re-suspended into 1 ml of 50 mM Tris-HCl buffer (pH 7.4, with protease inhibitor) and homogenized using syringes with 18-G, 21-G and 23-G needles.
To separate the membrane, the homogenate were centrifuged for 20 min at 20,000 × g at 4 °C. Then the pellet was re-suspended into 1 ml of 50 mM Tris-HCl buffer, pH 7.4 and centrifuged again. After repeating this procedure for one more time, the pellet was re-suspended into 1 ml of 50 mM Tris-HCl buffer, pH 7.4 and the protein concentration was measured.
To conduct the binding assay, 100 µg membrane enriched preparation was incubated with 40 nM [3H]-Glutamate in a total volume of 0.5 ml in 50 mM Tris-HCl buffer, pH 7.4 for 1 h on ice. […] Then the reaction was terminated by quickly filtering the solution on Whatman filter paper and washing by 3.5 ml Tris-HCl buffer. Radioactivity was measured in a Beckman liquid scintillation counter.

[5] = molecular target: T5, α1^S205A β2 γ2 GABAAR (Rattus norvegicus, UniProt P62813+P63138, S232A); experiment: Patch clamp, HEK293, mutant GABAAR; type: cell-based; conditions: GABA-evoked currents
T5 construct: expressed in transfected cells; host or cells: HEK293
Procedure: as §2, §3, §4, §5

[6] = molecular target: T6, α1 β2 ^I180A γ2 GABAAR (Rattus norvegicus, UniProt P62813+P63138, I205A); experiment: Patch clamp, HEK293, mutant GABAAR; type: cell-based; conditions: GABA-evoked currents
T6 construct: expressed in transfected cells; host or cells: HEK293
Procedure: as §2, §3, §4, §5

[7] = molecular target: T7, α1^Y159A β2 γ2 GABAAR (Rattus norvegicus, UniProt P62813+P63138, Y186A); experiment: Patch clamp, HEK293, mutant GABAAR; type: cell-based; conditions: GABA-evoked currents
T7 construct: expressed in transfected cells; host or cells: HEK293
Procedure: as §2, §3, §4, §5

[8] = molecular target: T8, α1 β2^Q63A γ2 GABAAR (Rattus norvegicus, UniProt P62813+P63138, Q88A); experiment: Patch clamp, HEK293, mutant GABAAR; type: cell-based
T8 construct: expressed in transfected cells; host or cells: HEK293
Procedure: as §2, §3, §4, §5

[9] = molecular target: T9, α1^E208A β2 γ2 GABAAR (Rattus norvegicus, UniProt P62813+P63138, E235A); experiment: Patch clamp, HEK293, mutant GABAAR; type: cell-based; conditions: GABA-evoked currents
T9 construct: expressed in transfected cells; host or cells: HEK293
Procedure: as §2, §3, §4, §5

[10] = molecular target: T10, α1^T206A β2 γ2 GABAAR (Rattus norvegicus, UniProt P62813+P63138, T233A); experiment: Patch clamp, HEK293, mutant GABAAR; type: cell-based; conditions: GABA-evoked currents
T10 construct: expressed in transfected cells; host or cells: HEK293
Procedure: as §2, §3, §4, §5

[11] = molecular target: T11, α1 β2^V177A γ2 GABAAR (Rattus norvegicus, UniProt P62813+P63138, V202A); experiment: Patch clamp, HEK293, mutant GABAAR; type: cell-based
T11 construct: expressed in transfected cells; host or cells: HEK293
Procedure: as §2, §3, §4, §5

[12] = molecular target: T12, α1 β2^G126A γ2 GABAAR (Rattus norvegicus, UniProt P62813+P63138, G151A); experiment: Patch clamp, HEK293, mutant GABAAR; type: cell-based
T12 construct: expressed in transfected cells; host or cells: HEK293
Procedure: as §2, §3, §4, §5

[13] = molecular target: T13, α1^H101A β2 γ2 GABAAR (Rattus norvegicus, UniProt P62813+P63138, H128A); experiment: Patch clamp, HEK293, mutant GABAAR; type: cell-based; conditions: GABA-evoked currents
T13 construct: expressed in transfected cells; host or cells: HEK293
Procedure: as §2, §3, §4, §5

[14] = molecular target: T14, α1^S158A β2 γ2 GABAAR (Rattus norvegicus, UniProt P62813+P63138, S185A); experiment: Patch clamp, HEK293, mutant GABAAR; type: cell-based; conditions: GABA-evoked currents
T14 construct: expressed in transfected cells; host or cells: HEK293
Procedure: as §2, §3, §4, §5

[15] = molecular target: T15, α1^F99A β2 γ2 GABAAR (Rattus norvegicus, UniProt P62813+P63138, F126A); experiment: Patch clamp, HEK293, mutant GABAAR; type: cell-based; conditions: GABA-evoked currents
T15 construct: expressed in transfected cells; host or cells: HEK293
Procedure: as §2, §3, §4, §5

[16] = molecular target: T16, α1 β2^Y61A γ2 GABAAR (Rattus norvegicus, UniProt P62813+P63138, Y86A); experiment: Patch clamp, HEK293, mutant GABAAR; type: cell-based
T16 construct: expressed in transfected cells; host or cells: HEK293
Procedure: as §2, §3, §4, §5

## NCCCC(=O)O [GABA, gamma-Aminobutyric acid]
[1]; GABA dose-response
  Hill Slope: 1.59 ± 0.14
[1]; GABA-evoked currents
  Imax (nA): 1.1 ± 0.2 nA
[2]
  Imax (nA): 1.3 ± 0.5 nA
[3]; GABA dose-response
  Hill Slope: 1.70 ± 0.17
[3]; GABA-evoked currents
  Imax (nA): 2.3 ± 0.7 nA
[4]
  [3H]glutamate binding activity in presence of competitor: 939.2 ± 88.8 CPM
[5]
  Imax (nA): 2.3 ± 1.1 nA
[6]
  Imax (nA): 1.7 ± 0.4 nA
[7]
  Imax (nA): 1.1 ± 0.5 nA
[8]; GABA dose-response
  Hill Slope: 2.09 ± 0.93
[8]; GABA-evoked currents
  Imax (nA): 1.0 ± 0.5 nA
[9]
  Imax (nA): 1.8 ± 0.8 nA
[10]
  Imax (nA): 1.9 ± 0.8 nA
[11]; GABA dose-response
  Hill Slope: 1.12 ± 0.37
[11]; GABA-evoked currents
  Imax (nA): 1.7 ± 0.9 nA
[12]; GABA dose-response
  Hill Slope: 2.28 ± 0.74
[12]; GABA-evoked currents
  Imax (nA): 1.3 ± 0.4 nA
[13]
  Imax (nA): 0.9 ± 0.5 nA
[14]
  Imax (nA): 1.3 ± 0.5 nA
[15]
  Imax (nA): 1.0 ± 0.7 nA
[16]; GABA dose-response
  Hill Slope: 2.91 ± 1.30
[16]; GABA-evoked currents
  Imax (nA): 1.0 ± 0.5 nA
